Where two headings read alike, the source gives them in different places. Positions of bridges follow the written chain, without caps; N, C: chain ends. Residues, ends and D or L forms follow the SMILES beside them. *: point of attachment. X2 = CC(CCC(C)C(=O)*)C(=O)OCC(=O)[C@@]12O[C@H](C3CCCCC3)O[C@@H]1C[C@H]1[C@@H]3CCC4=CC(=O)C=C[C@]4(C)[C@H]3[C@@H](O)C[C@@]12C
Experiments:
[1] = system: IL-6; assay type: in vivo, rats; conditions: Dex 1274 and 127 nmol/kg IV; dCIC 1274 nmol/kg IA or 127 nmol/kg IV; conjugate 127, 51 and 13 nmol/kg IV; four hours after IL-1β
Description: In this example, an IL-1β Challenge rat model was used for the evaluation of peptides-drug conjugates. In this model, IL-1β is injected intra-articularly (i.e., IA) into a single knee joint to induce an inflammatory state that can be quantified by measuring IL-6 levels in joint lavage fluid (EXAMPLE 30). The primary goal of using this model was to induce a localized inflammatory state in the joint, as opposed to the systemic inflammation induced in other models, as a way to differentiate localized delivery of dCIC to the joint from systemic administration of the steroid. […] CBC counts were used to assess any reductions in various white blood cell levels, which are established markers of systemic exposure to glucocorticoids. […]
IL-6 was measured in knee lavage fluid using a Luminex assay and levels were normalized to total protein in the lavage fluid (FIG. 24). […] Terminal synovial fluid was collected from all animals and analyzed by Luminex 200 for IL-6 cytokine concentrations using EMD Milliplex MAP Rat Cytokine/Chemokine Magnetic Panel ([sequence]-65K). […] Thymus and spleen were harvested and their organ weights determined.

[2] = IL-1β challenge rat model, follow-up study: WBC, lymphocyte and monocyte counts; assay type: in vivo, rats; conditions: 2.75 hours; peptide 127, conjugate 51 and 13 nmol/kg IV; dCIC 1274 IA, 127 and 51 IV
Description: This study was conducted in an identical manner to the dose-ranging study described further above in this EXAMPLE with regard to timing of test agent administration, collection of blood for CBC, injection of IL-1β, and lavage of the knee following euthanasia. In this study, the blood collected at euthanasia was submitted for both CBC and serum chemistry, and thymus and spleen weights were not measured because there was no evidence of treatment effect for dCIC and peptide-dCIC on these organs in the dose-ranging study. Assessment of biomarkers of steroid exposure in blood of rats as part of a PD study as shown in FIG. 27: # denotes dose administered by IA injection, all other treatments were administered IV. The treatment groups included the following test articles: (i) no IL-1β negative control (denoted “No IL-1b”); (ii); vehicle only control for the peptide-drug conjugate (denoted as “vehicle”), which was (5% DMSO in PBS); (iii) the peptide-only control peptide(SEQ ID NO: 105) at 127 nmol/kg (denoted over “Peptide” as “127”); (iv) 3 dose levels of dCIC, 1274 nmol/kg IA, 127 nmol/kg IV, 51 nmol/kg IV (denoted over “dCIC” as “1274 #”, “127” and “51” respectively); (v) and 2 dose levels of peptide(SEQ ID NO: 105)-DMA-dCIC (51 nmol/kg, 13 nmol/kg) (denoted over “Peptide(SEQ ID NO: 105)-DMA-dCIC” as “51” and “13” respectively), each of (i)-(v) with n=10 animals per dose group, except for no Il-1β control and peptide-only control arms which had n=6 animals per dose group. Doses are listed as nmol/kg. Statistical analysis was conducted using Wilcoxon rank-sum test with correction for multiple comparisons using Holm's method.

[3] = Solubility for formulation; assay type: physicochemical; conditions: aqueous formulation for systemic delivery
Source text: This study was designed to test whether dCIC delivered by a peptide would enable local suppression of inflammation in the joint while reducing systemic exposure to dCIC compared to that obtained when dosing therapeutic levels of dCIC alone. To enable systemic delivery of dCIC (unconjugated), it was formulated in 40% propylene glycol and then heated in order to solubilize the molecule. […] The peptide-drug conjugates of the disclosure can have a water solubility that allows conjugates to be formulated for systemic delivery, wherein at least some of the drugs used in the peptide-drug conjugates may not have sufficient water solubility for systemic administration when not conjugated to peptide. The conjugates comprising those drugs can home, target, migrate to, accumulate in, bind to, be retained by, or be redirected to a cartilage of a subject.

[4] = IL-1β challenge rat model, dose-ranging study: CBC, organ weights, tolerability; assay type: in vivo, rats
Description: IL-6 was measured in knee lavage fluid using a Luminex assay and levels were normalized to total protein in the lavage fluid (FIG. 24). Assessment of the PD inflammatory marker IL-6 in the knee joints of rats challenged with IL-1β was performed. Terminal synovial fluid was collected from all animals and analyzed by Luminex 200 for IL-6 cytokine concentrations using EMD Milliplex MAP Rat Cytokine/Chemokine Magnetic Panel ([…]-65K). […] Doses are listed as nmol/kg The masses of these doses are given below in TABLE 16. Two hours and forty-five minutes (i.e., 2.75 hrs) after administration of the test agents, animals were gently heated and blood was drawn from the tail vein for CBC analysis. Animals were then anesthetized with inhaled isoflurane and injected with 30 ng of IL-1β into the right knee (except for no IL-1β group). Four hours after administration of IL-1β (seven hours after administration of test agent) the animals were euthanized. Blood was drawn for a second CBC analysis and the right knee was lavaged for detection of IL-6 in the lavage fluid using a Luminex assay. Thymus and spleen were harvested and their organ weights determined.
In the same animals for which IL-6 secretion was measured, CBC data (e.g., lymphocyte counts) were also analyzed (FIG. 25) at an early time-point, 2.75 hrs post administration of the test article (FIG. 25A), and at euthanasia 7 hrs post administration (FIG. 25B). All treatments were administered as described above for the measurement of IL-6 secretion.
All treatments and test articles were administered as described above, except for an additional treatment group that received 510 nmol/kg of the peptide-drug conjugate peptide(SEQ ID NO: 105)-DMA-dCIC.

[5] = Hydrolysis assay of peptide-drug conjugates in rat plasma (free drug by LC/MS); assay type: in vitro ADME; conditions: rat plasma, 37° C., read-out: half-life (in vitro hydrolysis, free dCIC) (converted)
Description: Peptide-drug conjugate peptide(SEQ ID NO: 105)-DMA-dCIC was incubated in rat plasma at 37° C. Samples were removed at regular intervals, processed by solvent extraction, and analyzed by LC/MS to quantitate free dCIC. 11 time-points were measured between 5 min and 56 hours with 3 replicates per time point. The assay was repeated two times.
In order to determine hydrolysis rates, conjugates can be diluted in PBS, rat plasma, or human plasma and incubated at 37 degrees. Samples can be taken at designated time-points (e.g., 1, 2, 3, 5, 10, 15, 20, 25, 30, 45, 60, or 90 minutes and/or hours after administration). Internal standards such as triamcinolone acetonide (TAA) can be added as an internal standard, and then active agent/TAA can be extracted using acetonitrile, for example. The samples can be dried down, reconstituted, and analyzed by LC/MS. Data can be normalized using Dex AUC/TAA AUC. Percent hydrolysis can be calculated using the average ratio for active agent AUC/TAA AUC at a time point of maximal drug release. A general method can include using a lyophilized, purified peptide-drug conjugates reconstituted in DMSO following production to generate stock solution at 20 mg/mL. Each conjugate stock can be brought to 0.25 mg/mL in each hydrolysis condition (1×DPBS, human plasma and rat plasma) in triplicate and rocked at 37° C. To quantitate free active agent, 100 μl of the hydrolyzed conjugate solution can be transferred into 1 mL acetonitrile at 4° C. at which time all plasma proteins and intact conjugates can precipitate. This can be performed repeatedly to generate a series of time points (0 hr, 0.5 hr, 1 hr, 2 hr, 4 hr, 6 hr, 8 hr, 24 hr, 32 hr). The acetonitrile solution can be spun at 17,000 g for 5 minutes, and the supernatant removed and added to a 96 well block. The pellet can then be resuspended in 500 μl acetonitrile and re-pelleted as before. The supernatant can be removed and added to the same well in the block. Samples can be prepared for analysis by drying under a nitrogen stream followed by reconstitution in 110 μl 45:55 ACN:Citrate 10 mM pH 5.5. To ensure optimal recovery the block can be shaken via plate shaker at 7,000 rpm for 5 minutes during the reconstitution step. Prior to LC/MS the samples can be transferred to a 96 well plate and centrifuged at 6,500 g for 15 minutes. Analysis can be performed on an Agilent 1260 Infinity series HPLC with inline 6120 single quad MS using acetonitrile, water (+0.1% TFA) gradient (shown below) on an InfinityLab Poroshell SB-C18 column. Quantification of free active agent (or drug) can be achieved through integration of active agent peaks of the TIC.
Lyophilized, purified peptide-drug conjugates were reconstituted in DMSO following production to generate stock solution at 20 mg/mL. Each conjugate stock was brought to 0.25 mg/mL in each hydrolysis condition (1×DPBS, human plasma and rat plasma) in triplicate and rocked at 37° C.
To quantitate free dexamethasone (Dex), 100 μl of the hydrolyzed conjugate solution was transferred into 1 mL acetonitrile at 4° C. at which time all plasma proteins and intact conjugates precipitated. This was performed repeatedly to generate a series of time points (0 hr, 0.5 hr, 1 hr, 2 hr, 4 hr, 6 hr, 8 hr, 24 hr, 32 hr). The corticosteroid triamcinolone acetonide (25 μl, 0.1 mg/mL in 45:55 ACN:Citrate 10 mM pH 5.5) was supplemented into the acetonitrile solution as an internal standard. The acetonitrile solution was spun at 17,000 g for 5 minutes, and the supernatant removed and added to a 96 well block. The pellet was resuspended in 500 μl acetonitrile and re-pelleted as before. The supernatant was removed and added to the same well in the block.
Samples were prepared for analysis by drying under a nitrogen stream followed by reconstitution in 110 μl 45:55 ACN:Citrate 10 mM pH 5.5. To ensure optimal recovery the block was shaken via plate shaker at 7,000 rpm for 5 minutes during the reconstitution step. […]

Structure (SMILES)	IL-6 concentration in knee lavage fluid normalized to total protein, compared to vehicle [1]	Total WBC counts [2]	lymphocyte counts [2]	monocyte counts [2]	solubility [3]	monocytes (CBC) ([4]; 2.75 hours post-treatment)	Lymphocyte counts as compared to vehicle control ([4]; 2.75 hrs post administration, Dex both doses, dCIC IA or IV)	spleen and thymus weights at euthanasia ([4]; 7 hours post administration)	Lymphocyte counts at euthanasia ([4]; 7 hours post administration, all dose levels)	neutrophils (CBC) ([4]; 2.75 hours post-treatment, higher doses)	effect on lymphocyte counts as compared to Dex and dCIC alone ([4]; 2.75 hrs post administration, equimolar dose of 127 nmol/kg)	mortality ([4]; highest dose group (1274 nmol/kg IV))	CBC counts and all observations ([4]; lower effective doses (13-51 nmol/kg))	mortality ([4]; second highest dose group (510 nmol/kg), within 30-90 minutes of dosing)	half-life at 0.25 mg/mL ([5]; first assay, acetonitrile extraction of dCIC)	half-life at 0.25 mg/mL ([5]; second assay, ethyl acetate extraction of dCIC)
C[C@]12C=CC(=O)C=C1CC[C@@H]1[C@@H]2[C@@H](O)C[C@@]2(C)[C@H]1C[C@H]1O[C@@H](C3CCCCC3)O[C@]12C(=O)CO [dCIC, des-ciclesonide]	decrease in IL-6 concentrations	substantial reduction	substantial reduction	substantial reduction	not soluble in water	dose dependent decrease	reduction in lymphocyte counts	minimal effect on the weight of both organs	either stable or starting to recover	–	–	–	–	–	–	–
CC[C@H](C)[C@@H]1NC(=O)[C@@H]2CSSC[C@H](NC(=O)[C@H](CCCNC(=N)N)NC(=O)[C@@H](NC(=O)[C@H](CC(N)=O)NC(=O)[C@@H](NC(=O)[C@@H]3CCCN3C(=O)[C@@H](NC(=O)CNC(=O)[C@H](CO)NC(=O)CNC(=O)C(C)CCC(C)C(=O)OCC(=O)[C@@]34O[C@H](C5CCCCC5)O[C@@H]3C[C@H]3[C@@H]5CCC6=CC(=O)C=C[C@]6(C)[C@H]5[C@@H](O)C[C@@]34C)C(C)C)[C@@H](C)CC)C(C)C)C(=O)N[C@@H](CCCNC(=N)N)C(=O)NCC(=O)N[C@@H](CO)C(=O)N[C@@H](CCCNC(=N)N)C(=O)N[C@@H](CC(=O)O)C(=O)N[C@H]3CSSC[C@H](NC(=O)[C@H](CCCNC(=N)N)NC(=O)[C@H](CO)NC(=O)[C@H](CC(N)=O)NC1=O)C(=O)N[C@@H](Cc1c[nH]cn1)C(=O)N[C@H](C(=O)N[C@H](C(=O)N1CCC[C@H]1C(=O)O)[C@@H](C)O)CSSC[C@H](NC(=O)[C@@H]1CCCN1C(=O)[C@H](CC(=O)O)NC(=O)[C@H](CC(C)C)NC3=O)C(=O)N[C@@H](CCCNC(=N)N)C(=O)N[C@@H](CCCNC(=N)N)C(=O)N[C@@H](C)C(=O)NCC(=O)N[C@@H](CCSC)C(=O)N[C@@H](CCCNC(=N)N)C(=O)N[C@@H](Cc1ccccc1)C(=O)NCC(=O)N[C@@H](CCCNC(=N)N)C(=O)N2 (some centres unmarked) [Compound 46, peptide(SEQ ID NO: 105)-DMA-dCIC] (X2-GSGVPINVRCRGSRDCLDPCRRAGMRFGRCINSRCHCTP-OH; disulfide 10-30, 16-35, 20-37 (inferred); C-terminus assumed)	clear reduction in IL-6 concentration	–	–	–	soluble in PBS	dose-dependent increase	–	minimal effect on the weight of both organs	–	dose-dependent increase	less effect on lymphocyte counts	died within 30 minutes of dosing	normal	three out of five animals	8.5 h	5 h

— patent publication US20210252159A1, “CONJUGATES OF CARTILAGE-HOMING PEPTIDES” (priority 2018, published 2021)
